± gives the standard deviation of the averaged measurements.
Legend:
Test in all cases: level (log10 ratio to DMSO vehicle control); higher = higher biomarker level / cell amount than vehicle control
Conditions in all cases: in DMSO
[1] = compound: C=CC(=O)OCC(F)(F)C(F)(F)C(F)(F)C(F)(F)C(F)(F)C(F)(F)C(F)(F)F [1H,1H-Perfluorooctyl acrylate]
Procedure: (§1)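 BioMAP Diversity Plus panel of 12 human primary cell co-culture systems (3C, 4H, LPS, SAg, BT, BF4T, BE3C, CASM3C, HDF3CGF, KF3CT, MyoF, Mphg). Compounds were added 1 h before stimulation and left for 24 h (MyoF 48 h; BT 72 h for soluble read-outs or 6 d for IgG). Biomarkers were read by ELISA, cytotoxicity by SRB, PBMC viability and proliferation by Alamar Blue. Each well value was divided by the mean of 8 DMSO control wells on the same plate and log10 transformed; duplicate blinded samples were tested at 4 concentrations.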

[2] = compound: FC(F)(F)C(F)(F)C(F)(F)C(F)(F)C(F)(F)C(F)(F)C(F)(F)C(F)(F)CCS [2-(Perfluorooctyl)ethanthiol]
Procedure: as §1

Perfluoroheptanoic acid = compound: O=C(O)C(F)(F)C(F)(F)C(F)(F)C(F)(F)C(F)(F)C(F)(F)F [Perfluoroheptanoic acid]
Procedure: as §1

Perfluorobutanoic acid = compound: O=C(O)C(F)(F)C(F)(F)C(F)(F)F [Perfluorobutanoic acid]
Procedure: as §1

Perfluoropropanoic acid = compound: O=C(O)C(F)(F)C(F)(F)F [Perfluoropropanoic acid]
Procedure: as §1

[3] = compound: O=C(O)C(F)(F)OC(F)(F)C(F)(F)OC(F)(F)C(=O)O [Perfluoro-3,6-dioxaoctane-1,8-dioic acid]
Procedure: as §1

[4] = compound: OCC(F)(F)OC(F)(F)C(F)(F)OC(F)(F)CO [1H,1H,8H,8H-Perfluoro-3,6-dioxaoctane-1,8-diol]
Procedure: as §1

Test System	level (log10) ([1]; 6700 nM)	level (log10) ([1]; 20000 nM)	level (log10) ([1]; 60000 nM)	level (log10) ([2]; 6700 nM)	level (log10) ([2]; 20000 nM)	level (log10) (Perfluoroheptanoic acid; 6700 nM)	level (log10) (Perfluoroheptanoic acid; 20000 nM)	level (log10) (Perfluoroheptanoic acid; 60000 nM)	level (log10) (Perfluorobutanoic acid; 6700 nM)	level (log10) (Perfluorobutanoic acid; 20000 nM)	level (log10) (Perfluorobutanoic acid; 60000 nM)	level (log10) (Perfluoropropanoic acid; 6700 nM)	level (log10) (Perfluoropropanoic acid; 20000 nM)	level (log10) (Perfluoropropanoic acid; 60000 nM)	level (log10) ([3]; 6700 nM)	level (log10) ([3]; 20000 nM)	level (log10) ([3]; 60000 nM)	level (log10) ([4]; 6700 nM)	level (log10) ([4]; 20000 nM)	level (log10) ([4]; 60000 nM)
KF3CT:CD54/ICAM-1	-0.005 ± 0.016	-0.0075 ± 0.005	-0.0045 ± 0.0092	-0.001 ± 0.034	-0.002 ± 0.0085	-0.023 ± 0.0042	-0.0085 ± 0.0035	-0.0315 ± 0.00071	-0.005 ± 0.0028	0.008 ± 0.0071	0.016 ± 0.016	-0.0135 ± 0.0092	-0.0015 ± 0.0021	0.004 ± 0.0028	0 ± 0.0057	0.01	0.0065 ± 0.015	-0.004 ± 0.0014	0.008 ± 0.03	0.0135 ± 0.037
CASM3C:CD141/Thrombomodulin	-0.002 ± 0.0028	0.0035 ± 0.011	0.002 ± 0.017	-0.034 ± 0.048	-0.0065 ± 0.09	-0.0085 ± 0.025	0.0065 ± 0.0064	0.011 ± 0.033	0.0145 ± 0.021	0.022 ± 0.0028	-0.0045 ± 0.037	-0.05 ± 0.031	0.024 ± 0.0099	0.0245 ± 0.066	0.0045 ± 0.018	0.002 ± 0.0028	0.017 ± 0.0071	-0.0045 ± 0.0021	0.0035 ± 0.005	0.001 ± 0.016
HDF3CGF:TIMP-1	-0.026 ± 0.05	-0.029 ± 0.0057	-0.015 ± 0.038	-0.017 ± 0.013	-0.035 ± 0.0042	-0.0015 ± 0.00071	-0.0115 ± 0.0035	-0.0055 ± 0.035	-0.0165 ± 0.00071	-0.0085 ± 0.033	0.0085 ± 0.013	-0.0195 ± 0.016	-0.0045 ± 0.0064	0.038 ± 0.025	-0.037 ± 0.0099	-0.009 ± 0.0028	0.041 ± 0.051	-0.007 ± 0.025	-0.0015 ± 0.016	0.0065 ± 0.023
CASM3C:Serum Amyloid A	0.03 ± 0.014	0.032 ± 0.044	0.0485 ± 0.013	-0.0145 ± 0.013	0.002 ± 0.047	-0.006 ± 0.021	-0.013 ± 0.04	0.022 ± 0.082	-0.021	0.0225 ± 0.016	-0.009 ± 0.041	-0.05 ± 0.033	-0.0755 ± 0.026	-0.0465 ± 0.054	-0.012 ± 0.0028	-0.0235 ± 0.011	0.0265 ± 0.06	-0.0235 ± 0.044	-0.0195 ± 0.043	-0.036 ± 0.025
lMphg:SRB	-0.006 ± 0.0071	-0.013 ± 0.016	-0.0035 ± 0.012	-0.008 ± 0.0014	-0.011 ± 0.013	-0.013 ± 0.02	-0.01 ± 0.0028	-0.002 ± 0.0014	-0.012 ± 0.017	-0.0235 ± 0.037	0.002 ± 0.031	-0.0065 ± 0.005	-0.0125 ± 0.0021	-0.011 ± 0.016	-0.0035 ± 0.013	-0.009 ± 0.014	-0.0035 ± 0.015	-0.028 ± 0.021	0.015	-0.0375 ± 0.0021
HDF3CGF:TIMP-2	0.0145 ± 0.016	-0.023 ± 0.011	-0.041 ± 0.0028	-0.0305 ± 0.073	-0.0265 ± 0.069	-0.011 ± 0.018	-0.012 ± 0.017	0.014 ± 0.0085	-0.0015 ± 0.0035	-0.0055 ± 0.015	-0.0115 ± 0.036	-0.0495 ± 0.028	-0.0155 ± 0.05	-0.037 ± 0.073	-0.0145 ± 0.035	-0.0075 ± 0.011	0.001 ± 0.027	-0.002 ± 0.016	0.002 ± 0.0071	-0.011 ± 0.021
lMphg:CXCL8/IL-8	0.0185 ± 0.005	0.029 ± 0.0071	0.0295 ± 0.005	-0.012 ± 0.016	0.008 ± 0.016	-0.0125 ± 0.0035	0.032 ± 0.0042	0.18 ± 0.035	-0.022 ± 0.014	-0.017 ± 0.0028	0.0165 ± 0.04	0.0055 ± 0.0078	0.017 ± 0.018	0.0175 ± 0.043	-0.024 ± 0.027	0 ± 0.068	-0.002 ± 0.085	0.0065 ± 0.079	0.007 ± 0.072	0.0235 ± 0.1
HDF3CGF:Proliferation 72hr	0.0035 ± 0.0092	-0.056 ± 0.078	-0.168 ± 0.0092	-0.003 ± 0.0071	-0.0115 ± 0.013	-0.054 ± 0.033	0.0515 ± 0.098	-0.018 ± 0.018	0.01 ± 0.054	0.0145 ± 0.0021	0.0285 ± 0.029	0.006 ± 0.0042	-0.01 ± 0.045	0.0325 ± 0.0078	0.0035 ± 0.0035	0.008 ± 0.016	0.012 ± 0.035	-0.001 ± 0.031	0.0325 ± 0.044	-0.053 ± 0.031
